ChEMBL document CHEMBL3390841, “Design and synthesis of novel N,N-glycoside derivatives of 3,3-diindolylmethanes as potential antiproliferative agents” (Medchemcomm, 2012)
The source made the active and inactive calls. No cut-off for these calls is given here.

What was measured:
[1] = system: A549; assay: Cytotoxicity against human A549 cells assessed as growth inhibition after 48 hrs by MTT assay; type: functional, cell-based
[2] = system: HeLa; assay: Cytotoxicity against human HeLa cells assessed as growth inhibition after 48 hrs by MTT assay; type: functional, cell-based; design: unit not given here
[3] = system: MCF7; assay: Cytotoxicity against human MCF7 cells assessed as growth inhibition after 48 hrs by MTT assay; type: functional, cell-based
[4] = system: HeLa; assay: Cytotoxicity against human HeLa cells assessed as inhibition of colony formation at 0.1 to 1 umol after 5 days by crystal violet staining assay; type: functional, cell-based
[5] = system: HeLa; assay: Cell cycle arrest in human HeLa cells assessed as accumulation at sub-G1 phase at 0.1 umol after 24 hrs (reference value: 7.8%); type: functional
[6] = system: HeLa; assay: Antimigratory activity against human HeLa cells in low serum containing medium at 25 nmol after 24 hrs by wound healing assay; type: functional, cell-based
[7] = system: HeLa; assay: Antimigratory activity against human HeLa cells in low serum containing medium at 0.3 to 1 umol after 24 hrs by wound healing assay; type: functional, cell-based
[8] = system: HeLa; assay: Induction of apoptosis in human HeLa cells assessed as upregulation of par-4 protein expression after 24 hrs by Western blot analysis; type: functional, cell-based
[9] = system: HeLa; assay: Induction of apoptosis in human HeLa cells assessed as downregulation of GRP78 protein expression after 24 hrs by Western blot analysis; type: functional, cell-based
[10] = system: HeLa; assay: Induction of apoptosis in human HeLa cells assessed as downregulation of Bcl-2 protein expression after 24 hrs by Western blot analysis; type: functional, cell-based
[11] = system: HeLa; assay: Induction of apoptosis in human HeLa cells assessed as downregulation of survivin protein expression after 24 hrs by Western blot analysis; type: functional, cell-based
[12] = system: HeLa; assay: Cell cycle arrest in human HeLa cells assessed as accumulation at sub-G1 phase at 0.3 umol after 24 hrs (reference value: 7.8%); type: functional
[13] = system: HeLa; assay: Cell cycle arrest in human HeLa cells assessed as accumulation at sub-G1 phase at 1 umol after 24 hrs (reference value: 7.8%); type: functional

Row | Compound | IC50 [1] | IC50 [2] | IC50 [3] | further results
1 | Brc1ccc2[nH]cc(C(c3ccc4ccccc4c3)c3c[nH]c4ccc(Br)cc34)c2c1 | 8.5 µM | 4.3 | 7.1 µM | –
2 | CCCC(c1c[nH]c2ccc(Br)cc12)c1c[nH]c2ccc(Br)cc12 | 6.5 µM | 3.9 | 3.6 µM | –
3 | CCCCCCCC(c1c[nH]c2ccc(Br)cc12)c1c[nH]c2ccc(Br)cc12 | 3.5 µM | 1.3 | 5.5 µM | inhibition [4]: Active
4 | COc1ccc(C(c2c[nH]c3ccc(Br)cc23)c2c[nH]c3ccc(Br)cc23)c(OC)c1 | 100 µM | 63.2 | 77.5 µM | –
5 | CCCCCCCC(c1cn([C@@H]2O[C@H](COC(C)=O)[C@@H](OC(C)=O)[C@H](OC(C)=O)[C@H]2OC(C)=O)c2ccc(Br)cc12)c1cn([C@@H]2O[C@H](COC(C)=O)[C@@H](OC(C)=O)[C@H](OC(C)=O)[C@H]2OC(C)=O)c2ccc(Br)cc12 | 17 µM | 10 | > 100 µM | –
6 | O=[N+]([O-])c1ccc2[nH]cc(C(c3ccc(Cl)cc3)c3c[nH]c4ccc([N+](=O)[O-])cc34)c2c1 | > 100 µM | > 100 | > 100 µM | –
7 | CC(=O)OC[C@H]1O[C@@H](n2cc(C(c3ccc(Cl)cc3)c3cn([C@@H]4O[C@H](COC(C)=O)[C@@H](OC(C)=O)[C@H](OC(C)=O)[C@H]4OC(C)=O)c4ccc(Br)cc34)c3cc(Br)ccc32)[C@H](OC(C)=O)[C@@H](OC(C)=O)[C@@H]1OC(C)=O | 24 µM | 70 | > 100 µM | –
8 | Oc1ccc(C(c2c[nH]c3ccc(Br)cc23)c2c[nH]c3ccc(Br)cc23)cc1 | – | – | 3.5 µM | –
9 | N#Cc1ccc2[nH]cc(C(c3ccc(Cl)cc3)c3c[nH]c4ccc(C#N)cc34)c2c1 | > 100 µM | > 100 | 23.6 µM | –
10 | CC[C@@]1(O)C(=O)OCc2c1cc1n(c2=O)Cc2cc3ccccc3nc2-1 [CAMPTOTHECIN] | – | – | – | Activity [5]: 33.1%
11 | COc1ccc(C(c2c[nH]c3ccc(Br)cc23)c2c[nH]c3ccc(Br)cc23)cc1 | 10 µM | 5.5 | 2.3 µM | –
12 | CN[C@@H]1C[C@H]2O[C@@](C)([C@@H]1OC)n1c3ccccc3c3c4c(c5c6ccccc6n2c5c31)C(=O)NC4 [STAUROSPORINE] | – | – | 0.013 µM | Activity [6]: Active
13 | Clc1ccc(C(c2c[nH]c3ccc(Br)cc23)c2c[nH]c3ccc(Br)cc23)cc1 | 8.5 µM | 4.8 | 3.5 µM | inhibition [4]: Active
14 | CCCCCCCC(c1cn([C@@H]2O[C@H](CO)[C@@H](O)[C@H](O)[C@H]2O)c2ccc(Br)cc12)c1cn([C@@H]2O[C@H](CO)[C@@H](O)[C@H](O)[C@H]2O)c2ccc(Br)cc12 | 1.3 µM | 0.3 | 0.9 µM | inhibition [4]: Active; Activity [7]: Active; Activity [8]: Dose-dependent effect; Activity [9]: Dose-dependent effect; Activity [10]: Dose-dependent effect; Activity [11]: Dose-dependent effect; Activity [5]: 27.8%; Activity [12]: 19.3%; Activity [13]: 22.4%
15 | COc1ccc(C(c2c[nH]c3ccc(Br)cc23)c2c[nH]c3ccc(Br)cc23)cc1OC | 12 µM | 6.1 | 7.8 µM | –
16 | OC[C@H]1O[C@@H](n2cc(C(c3ccc(Cl)cc3)c3cn([C@@H]4O[C@H](CO)[C@@H](O)[C@H](O)[C@H]4O)c4ccc(Br)cc34)c3cc(Br)ccc32)[C@H](O)[C@@H](O)[C@@H]1O | 2.7 µM | 32 | 53.2 µM | –
17 | COc1cccc(C(c2c[nH]c3ccc(Br)cc23)c2c[nH]c3ccc(Br)cc23)c1OC | 100 µM | 64.5 | 89 µM | –
18 | Brc1ccc2[nH]cc(C(c3ccccc3)c3c[nH]c4ccc(Br)cc34)c2c1 | 7.5 µM | 0.9 | 5.5 µM | –

Row | Compound | IC50 [1] | IC50 [2] | IC50 [3] | further results
19 | O=[N+]([O-])c1ccc(C(c2c[nH]c3ccc([N+](=O)[O-])cc23)c2c[nH]c3ccc([N+](=O)[O-])cc23)cc1 | > 100 µM | > 100 | 22.5 µM | –
20 | CCCCCCCC(c1c[nH]c2ccc(C#N)cc12)c1c[nH]c2ccc(C#N)cc12 | 26 µM | 7 | 2.5 µM | –
21 | Brc1ccc(C(c2c[nH]c3ccc(Br)cc23)c2c[nH]c3ccc(Br)cc23)cc1 | 5.6 µM | 1.5 | 3.2 µM | inhibition [4]: Active
22 | O=[N+]([O-])c1ccc(C(c2cn([C@@H]3O[C@H](CO)[C@@H](O)[C@H](O)[C@H]3O)c3ccc(Br)cc23)c2cn([C@@H]3O[C@H](CO)[C@@H](O)[C@H](O)[C@H]3O)c3ccc(Br)cc23)cc1 | 2.4 µM | 30 | 66.7 µM | –
23 | CC(=O)OC[C@H]1O[C@@H](n2cc(C(c3ccc(Br)cc3)c3cn([C@@H]4O[C@H](COC(C)=O)[C@@H](OC(C)=O)[C@H](OC(C)=O)[C@H]4OC(C)=O)c4ccc(Br)cc34)c3cc(Br)ccc32)[C@H](OC(C)=O)[C@@H](OC(C)=O)[C@@H]1OC(C)=O | 24 µM | 70 | > 100 µM | –
24 | CC(=O)OC[C@H]1O[C@@H](n2cc(C(c3ccc([N+](=O)[O-])cc3)c3cn([C@@H]4O[C@H](COC(C)=O)[C@@H](OC(C)=O)[C@H](OC(C)=O)[C@H]4OC(C)=O)c4ccc(Br)cc34)c3cc(Br)ccc32)[C@H](OC(C)=O)[C@@H](OC(C)=O)[C@@H]1OC(C)=O | 8 µM | 3.5 | > 100 µM | –
25 | CC(c1ccccc1)(c1c[nH]c2ccccc12)c1c[nH]c2ccccc12 | 8.5 µM | 4.2 | 4 µM | –
26 | N#Cc1ccc2[nH]cc(C(c3ccc(Br)cc3)c3c[nH]c4ccc(C#N)cc34)c2c1 | > 100 µM | > 100 | 27.1 µM | –
27 | O=[N+]([O-])c1ccc(C(c2c[nH]c3ccc(Br)cc23)c2c[nH]c3ccc(Br)cc23)cc1 | 5.5 µM | 1.5 | 3.1 µM | inhibition [4]: Active
28 | CCCCCCCC(c1c[nH]c2ccc([N+](=O)[O-])cc12)c1c[nH]c2ccc([N+](=O)[O-])cc12 | 12.5 µM | 35 | 5.8 µM | –
29 | Oc1cccc(C(c2c[nH]c3ccc(Br)cc23)c2c[nH]c3ccc(Br)cc23)c1 | 8 µM | 3.9 | 2.8 µM | –
30 | c1ccc(C(c2c[nH]c3ccccc23)c2c[nH]c3ccccc23)cc1 | 40 µM | 21.8 | 22.2 µM | –
31 | OC[C@H]1O[C@@H](n2cc(C(c3ccc(Br)cc3)c3cn([C@@H]4O[C@H](CO)[C@@H](O)[C@H](O)[C@H]4O)c4ccc(Br)cc34)c3cc(Br)ccc32)[C@H](O)[C@@H](O)[C@@H]1O | 2.5 µM | 27 | 51.1 µM | –
32 | O=[N+]([O-])c1ccc2[nH]cc(C(c3ccc(Br)cc3)c3c[nH]c4ccc([N+](=O)[O-])cc34)c2c1 | > 100 µM | > 100 | > 100 µM | –
33 | COc1ccc(OC)c(C(c2c[nH]c3ccc(Br)cc23)c2c[nH]c3ccc(Br)cc23)c1 | 10 µM | 5.1 | 2.8 µM | –
34 | Brc1ccc2[nH]cc(C(c3c[nH]c4ccc(Br)cc34)C3CCCCC3)c2c1 | 5.5 µM | 3.2 | 4.1 µM | –
35 | N#Cc1ccc2[nH]cc(C(c3ccc([N+](=O)[O-])cc3)c3c[nH]c4ccc(C#N)cc34)c2c1 | > 100 µM | > 100 | 23.6 µM | –
36 | CN(C)c1ccc(C(c2c[nH]c3ccc(Br)cc23)c2c[nH]c3ccc(Br)cc23)cc1 | 25 µM | 12.8 | 24.9 µM | –
